Test results published in article PMC7602742, “Physiologically-Based Pharmacokinetic/Pharmacodynamic Model of MBQ-167 to Predict Tumor Growth Inhibition in Mice” (Pharmaceutics, 2020).

Legend:
[1] = cited from earlier work
[2] = Metabolism on incubation in liver microsomes; assay type: in vitro ADME; conditions: incubated in liver microsomes
Excerpt: (§1) Due to the limited information of any active process in MBQ-167 renal excretion and/or tubular reabsorption, it was assumed that renal excretion was only mediated by glomerular filtration.

[3] = target: CYP2C19 (Homo sapiens, UniProt P33261); test: CYP inhibition; assay type: in vitro ADME
CYP2C19, sequence (P33261 whole entry): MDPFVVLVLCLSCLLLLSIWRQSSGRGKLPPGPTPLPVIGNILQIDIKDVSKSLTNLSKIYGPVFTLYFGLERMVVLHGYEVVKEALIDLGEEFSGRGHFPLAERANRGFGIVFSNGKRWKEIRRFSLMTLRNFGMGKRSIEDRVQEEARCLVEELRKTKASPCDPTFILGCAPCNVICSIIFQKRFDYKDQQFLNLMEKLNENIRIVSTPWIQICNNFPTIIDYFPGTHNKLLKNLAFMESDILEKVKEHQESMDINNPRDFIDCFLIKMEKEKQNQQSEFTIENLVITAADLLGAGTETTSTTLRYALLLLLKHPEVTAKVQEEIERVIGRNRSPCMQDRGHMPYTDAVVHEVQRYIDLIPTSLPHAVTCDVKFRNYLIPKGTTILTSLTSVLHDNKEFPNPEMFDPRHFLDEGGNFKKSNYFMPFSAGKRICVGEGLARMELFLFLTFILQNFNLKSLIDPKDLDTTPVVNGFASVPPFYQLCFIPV
Excerpt: as §1

[4] = target: T1, CYP1A2 (Homo sapiens, UniProt P05177); test: CYP inhibition; assay type: in vitro ADME
T1 sequence (P05177 1-516): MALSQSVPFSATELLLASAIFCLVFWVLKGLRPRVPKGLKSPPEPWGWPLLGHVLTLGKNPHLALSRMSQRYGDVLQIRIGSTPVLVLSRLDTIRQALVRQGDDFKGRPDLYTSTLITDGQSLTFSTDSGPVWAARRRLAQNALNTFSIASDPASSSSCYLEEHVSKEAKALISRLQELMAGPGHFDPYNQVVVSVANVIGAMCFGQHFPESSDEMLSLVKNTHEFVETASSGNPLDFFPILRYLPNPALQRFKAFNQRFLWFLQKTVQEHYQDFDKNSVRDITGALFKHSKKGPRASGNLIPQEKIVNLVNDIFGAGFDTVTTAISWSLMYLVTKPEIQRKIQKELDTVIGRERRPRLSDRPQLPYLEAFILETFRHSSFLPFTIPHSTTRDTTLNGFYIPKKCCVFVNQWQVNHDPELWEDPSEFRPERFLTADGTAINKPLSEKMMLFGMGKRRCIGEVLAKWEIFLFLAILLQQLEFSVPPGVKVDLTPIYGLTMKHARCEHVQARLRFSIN
Excerpt: as §1

[5] = target: CYP3A4 (Homo sapiens, UniProt P08684); test: CYP inhibition; assay type: in vitro ADME
CYP3A4, sequence (P08684 whole entry): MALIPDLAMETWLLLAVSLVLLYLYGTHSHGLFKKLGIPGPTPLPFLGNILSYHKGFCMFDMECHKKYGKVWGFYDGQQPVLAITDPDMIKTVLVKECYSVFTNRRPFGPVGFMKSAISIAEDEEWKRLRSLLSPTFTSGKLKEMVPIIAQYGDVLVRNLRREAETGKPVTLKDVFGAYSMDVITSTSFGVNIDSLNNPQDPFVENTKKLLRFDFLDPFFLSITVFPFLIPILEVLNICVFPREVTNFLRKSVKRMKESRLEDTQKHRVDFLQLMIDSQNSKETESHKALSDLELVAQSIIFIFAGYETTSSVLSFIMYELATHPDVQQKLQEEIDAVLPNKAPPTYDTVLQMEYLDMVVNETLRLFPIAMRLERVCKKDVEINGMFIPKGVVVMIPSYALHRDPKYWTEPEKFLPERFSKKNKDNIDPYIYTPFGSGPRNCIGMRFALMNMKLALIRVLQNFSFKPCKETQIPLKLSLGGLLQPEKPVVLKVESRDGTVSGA
Excerpt: as §1

[6] = target: CYP2C9 (Homo sapiens, UniProt P11712); test: CYP inhibition; assay type: in vitro ADME
CYP2C9, sequence (P11712 whole entry): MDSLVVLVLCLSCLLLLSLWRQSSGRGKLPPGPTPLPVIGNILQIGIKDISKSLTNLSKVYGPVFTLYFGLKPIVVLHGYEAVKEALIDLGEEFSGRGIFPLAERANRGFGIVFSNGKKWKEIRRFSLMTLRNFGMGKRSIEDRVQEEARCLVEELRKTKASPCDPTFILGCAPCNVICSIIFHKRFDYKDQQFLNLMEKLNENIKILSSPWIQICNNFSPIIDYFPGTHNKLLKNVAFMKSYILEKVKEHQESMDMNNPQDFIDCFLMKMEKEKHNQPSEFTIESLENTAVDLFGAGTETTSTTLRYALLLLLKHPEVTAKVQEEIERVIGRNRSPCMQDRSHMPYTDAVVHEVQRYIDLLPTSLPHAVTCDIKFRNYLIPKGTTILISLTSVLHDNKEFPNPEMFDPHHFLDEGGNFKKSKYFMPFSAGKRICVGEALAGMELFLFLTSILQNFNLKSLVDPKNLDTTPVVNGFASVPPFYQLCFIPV
Excerpt: as §1

[7] = Physicochemical properties (PBPK model inputs); conditions: model input
Excerpt: The molecular weight of MBQ-167 is 338.414 g/mol and the water partition coefficient (logPoctanol:water) ratio is 4.944. […] The fu in plasma was estimated to 0.02. B/P ratio was initially estimated in the base PBPK model development phase and then optimized using a local sensitivity analysis (LSA) with a final value of 1.8.

[8] = design: method as in PMID 31720502; conditions: cited from earlier work
[9] = test system: Cdc42; design: method as in PMID 28450422; conditions: inhibition of GTPase activation; read-out: half-maximal inhibitory concentration (IC50) for Cdc42; cited from earlier work
[10] = Tumor pharmacokinetics in 4T1 tumor-bearing mice (observed); assay type: in vivo; conditions: BALB/c, mouse, tumor (4T1), single IP 10 mg/kg
Experimental: Thirty-five BALB/c mice were injected with 2.5 × 10^5 4T1 murine metastatic breast cancer cells at the mammary fat pad under isoflurane inhalation (1–3% in oxygen using an inhalation chamber at 2 L/min) to produce primary tumors, as described. Following IP treatment with a single dose of MBQ-167 (10 mg/kg), five mice/group were sacrificed by cervical dislocation at 0.5, 1, 3, 6, 9,12, and 24 h. Following sacrifice, tumors were collected and flushed with normal saline, individually wrapped in aluminum foil, snap-frozen in liquid nitrogen, and stored frozen at −80 °C until use.
Tumor samples were extracted by liquid-liquid extraction method, as previously described by. Briefly, frozen tumors were thawed, weighed (100 mg), and homogenized using the Polytron PT 2100 instrument in pH 7.4 saline (1:4 w/v). […]
We used a validated bioanalytical method using supercritical fluid chromatography coupled with tandem mass spectrometry to quantify MBQ-167 in tumors and tissues, as previously described. […]
The final MBQ-167 PBPK model was verified through both graphical and numerical analysis. […] The performance of the MBQ-167 PBPK model was assessed by the fold error at each tissue, which referred to the ratio of the predicted AUC0-t or Cmax to the observed AUC0-t or Cmax, respectively (Equation (1)). AUC0-t was calculated by the trapezoidal rule. […]

[11] = Plasma and tissue pharmacokinetics after single IP dose (observed); assay type: in vivo; conditions: female, BALB/c, mouse, single IP 10 mg/kg, mice; for AUC(0-t): read-out: AUC obs (AUC0-t)
Experimental: All animal studies were conducted under approved animal protocols (#A8180117, #A8180112) by the University of Puerto Rico Medical Sciences Campus Institutional Animal Care and Use Committee, in accordance with the principles and procedures outlined in the NIH Guideline for the Care and Use of Laboratory Animals. Four to five-week-old female BALB/c mice (Charles River Laboratories, Inc. Wilmington, MA, USA) were housed under pathogen-free conditions in HEPA-filtered cages and kept on a 12 h light/dark cycle, and controlled temperature (22–24 °C), and humidity (25%). Food and water were given ad libitum. MBQ-167 was prepared as a stock solution of 2 mg/mL in Cremophor®:ethanol:PBS (12.5:12.5:75) solution. Each mouse was administered a single 0.1 mL dose of MBQ-167 (in 12.5% ethanol, 12.5% Cremophor®, 75% phosphate buffered saline, pH 7.4) that corresponded to 10 mg/kg body weight (BW) by IP injection.
We used a validated bioanalytical method using supercritical fluid chromatography coupled with tandem mass spectrometry to quantify MBQ-167 in tumors and tissues, as previously described. The analysis was performed on an Acquity UPC^2 system (Waters Corp., Milford, MA, USA) coupled to a triple quadrupole tandem mass spectrometer (MS/MS). An Acquity UPC^2 BEH (3.0 × 100 mm^2, 1.7 μm) column was used for separation purposes.
The final MBQ-167 PBPK model was verified through both graphical and numerical analysis. Experimental and predicted longitudinal plasma concentration- (Cp) and tissue concentration- (Ct) profiles were generated, including the 95% confidence intervals (95% CI) of the observations at each sampling time and the mean predicted concentrations. LSA was performed to evaluate the relative impact of B/P, fu, CLR, CLtumor and PS in the plasma PK exposure parameters (AUC0-t and Cmax). The performance of the MBQ-167 PBPK model was assessed by the fold error at each tissue, which referred to the ratio of the predicted AUC0-t or Cmax to the observed AUC0-t or Cmax, respectively (Equation (1)). AUC0-t was calculated by the trapezoidal rule. Both graphical and numerical analyses were performed in RStudio version 1.2.5019 (Boston, MA, USA, 2019) with R version 3.5.1 (GNU project). (1) Fold ERROR PK parameter=Predicted PK parameter/Observed PK parameter

[12] = Intrinsic clearance from in vitro hepatocytes; assay type: in vitro ADME; conditions: in vitro determined, read-out: Hep intrinsic CL
Excerpt: as §1

[13] = test system: GFP-MDA-MB-231 (TNBC) mammary fat pad tumors; test: Triple Negative tumor growth study (observed); assay type: in vivo, athymic nude (nu/nu) mice; conditions: 10 mg/kg BW IP three times a week for 108 days
Experimental: As published elsewhere, female athymic nude (nu/nu) mice, 4 to 5 weeks old (Charles River Laboratories, Inc., Wilmington, MA, USA) were maintained under pathogen-free conditions in HEPA-filtered cages (5 mice per cage) under controlled light (12 h light and dark cycle), temperature (22–24 °C), and humidity (25%).
Mammary fat pad tumors were established using green fluorescent protein (GFP)-tagged MDA-MB-435 (HER2++) cells in Matrigel (BD Biosciences, San Jose, CA, USA) or GFP-MDA-MB-231 (TNBC) cells by injecting at the fourth right mammary fat pad under isofluorane inhalation (1–3% in oxygen using an inhalation chamber at 2 L/min) to produce orthotopic primary tumors. […]
Mammary tumor growth was quantified as changes in the integrated density of green fluorescent protein (GFP) fluorescence. […] The FluorVivo small animal in vivo imaging system (INDEC Systems, Inc., Santa Clara, CA, USA) was used for whole body imaging of GFP fluorescence. Tumor fluorescence intensities were analyzed using Image J software (National Institutes of Health, Bethesda, MD, USA, 2019, Version 1.52q 13). Relative tumor growth was calculated as the integrated density of fluorescence of each tumor on each day of imaging relative to the integrated density of fluorescence of the same tumor on day 1 of treatment administration, relative to vehicle controls.

[14] = test system: mammary fat pad tumor and metastases; conditions: cited from earlier work

Compound: O=c1cc(CN2CCOCC2)occ1OCCCCCSc1ccnc2cc(C(F)(F)F)ccc12 [EHT1864]
- t1/2 [1]: 1.65 h

Compound: CCn1c2ccccc2c2cc(Nc3ccnc(NCCCN4CCOCC4)n3)ccc21 [EHop-016]
- t1/2 [1]: 5.73 h

Compound: CCn1c2ccccc2c2cc(-n3nncc3-c3ccccc3)ccc21 [MBQ-167]
- metabolites formed [2]: up to nine metabolites
- CYP2C19 inhibition [3]: inhibits
- CYP1A2 inhibition [4]: inhibits
- CYP3A4 inhibition [5]: inhibits
- CYP2C9 inhibition [6]: inhibits
- Compound Type [7]: Monoprotic Base
- pKa ([7]; source not stated): 0.27
- logPo:w ([7]; octanol:water, source not stated): 4.944
- volume of distribution reported in the literature ([8]; mice of 20 g body weight): 400 mL
- systemic plasma clearance (reported/observed) ([8]; mice): 2.15 mL/min
- Cmax [10]: 1240 ng/mL
- AUC(0-t) ([10]; read-out: AUC obs (AUC0-t)): 10300 ng·h/mL
- Cmax ([11]; heart): 841 ng/mL
- AUC(0-t) ([11]; heart): 949 ng·h/mL
- Cmax ([11]; kidneys): 11200 ng/mL
- AUC(0-t) ([11]; kidneys): 34300 ng·h/mL
- Cmax ([11]; liver): 4790 ng/mL
- AUC(0-t) ([11]; liver): 8390 ng·h/mL
- Cmax ([11]; lung): 1540 ng/mL
- AUC(0-t) ([11]; lung): 1890 ng·h/mL
- Cmax ([11]; plasma): 840 ng/mL
- AUC(0-t) ([11]; plasma): 1420 ng·h/mL
- Cmax ([11]; spleen): 1690 ng/mL
- AUC(0-t) ([11]; spleen): 3980 ng·h/mL
- hepatocyte CLint [12]: 79 µL/min/1e6 cells
- observed relative reduction in the final tumor size [13]: 87.0%
- effect on metastases ([14]; 10 mg/kg BW, mice): total inhibition of metastases
- start of mammary fat pad tumor size reduction after treatment ([14]; 10 mg/kg BW, mice): approximately 3 weeks
- toxicity in vivo ([14]; preclinical studies): without apparent toxicity
